From PubChem BioAssay (NCI)
Where “and” joins values, the source holds several entries; their conditions need not be identical. Identical values can stand only once.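 All cell lines were grown in 96-well plates and treated with compound for 48 hours. Here, GI50 denotes the concentration required for 50% inhibition of growth. TGI marks complete inhibition of growth.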

How the values were obtained:
Assay in all cases: NCI tumour cell line growth inhibition, 48 h
A498 renal = system: A498 renal
A549 NSCLC = system: A549 NSCLC
ACHN renal = system: ACHN renal
EKVX NSCLC = system: EKVX NSCLC
HOP-92 NSCLC = system: HOP-92 NSCLC
MCF7 breast = system: MCF7 breast
NCI-H460 lung = system: NCI-H460 lung
SF-295 CNS = system: SF-295 CNS
SK-OV-3 ovarian = system: SK-OV-3 ovarian
U251 CNS = system: U251 CNS

| Structure (SMILES) | GI50 (A498 renal) | TGI (A498 renal) | GI50 (A549 NSCLC) | TGI (A549 NSCLC) | GI50 (ACHN renal) | TGI (ACHN renal) | GI50 (EKVX NSCLC) | TGI (EKVX NSCLC) | GI50 (HOP-92 NSCLC) | TGI (HOP-92 NSCLC) | GI50 (MCF7 breast) | TGI (MCF7 breast) | GI50 (NCI-H460 lung) | TGI (NCI-H460 lung) | GI50 (SF-295 CNS) | TGI (SF-295 CNS) | GI50 (SK-OV-3 ovarian) | TGI (SK-OV-3 ovarian) | GI50 (U251 CNS) | TGI (U251 CNS) |
| --- | --- | --- | --- | --- | --- | --- | --- | --- | --- | --- | --- | --- | --- | --- | --- | --- | --- | --- | --- | --- |
| Nc1ncn([C@@H]2O[C@H](CO)[C@@H](O)[C@H]2O)c(=O)n1 | 1.41 µM | 13.8 µM | 1.03 µM | > 100 µM | 0.664 µM | 16.7 µM | 8.49 µM | > 100 µM | 3.06 µM | 44.5 µM | 1.24 µM | 18.2 µM | 0.232 µM | 1.78 µM | 2.28 µM | 58.7 µM | 1.14 µM | 5.46 µM | – | – |
| COc1cc(N(CCC#N)CCC#N)ccc1/C(N=Nc1ccc(Cl)cc1)=N/NC(=O)c1cc(Br)ccc1O | > 150 µg/mL | > 150 µg/mL | 85.5 µg/mL | > 150 µg/mL | 86.1 µg/mL | > 150 µg/mL | 72.4 µg/mL | > 150 µg/mL | > 150 µg/mL | > 150 µg/mL | 44.1 µg/mL | > 150 µg/mL | 53.6 µg/mL | > 150 µg/mL | 79.4 µg/mL | > 150 µg/mL | 90.8 µg/mL | > 150 µg/mL | 145 µg/mL | > 150 µg/mL |
| CNCCOC(=O)/C=C1\CC[C@H]2[C@@H]([C@@H](O)C(=O)[C@@H]3[C@]2(C)CC[C@H](O)[C@]3(C)C(=O)OC)[C@H]1C | 0.262 µM | 2.53 µM | 0.165 µM | 0.314 µM | 0.25 µM | 0.785 µM | 0.229 µM | 0.539 µM | 0.527 µM | 3.52 µM | 0.368 µM | 1.7 µM | 0.201 µM | 0.429 µM | 0.301 µM | 0.951 µM | 0.392 µM | 1.36 µM | 0.324 µM | 1.17 µM |
| CC(=O)ON1CCCC(P(=O)(OCCSC(=O)C(C)(C)C)OCCSC(=O)C(C)(C)C)C1=O (stereo not given) | 0.304 µM | 3.49 µM | 1.52 µM | > 100 µM | 1.75 µM | 30.4 µM | 2.1 µM | 49.6 µM | 0.87 µM | 31.2 µM | 2.01 µM | 47.5 µM | 1.28 µM | 19.9 µM | 12.7 µM | > 100 µM | 2.86 µM | 88 µM | 1.02 µM | 64.3 µM |
| NNC(=O)CNc1cccc(Br)c1 | – | > 100 µM | – | > 100 µM | – | > 100 µM | – | > 100 µM | – | > 100 µM | – | > 100 µM | – | > 100 µM | – | > 100 µM | – | > 100 µM | – | > 100 µM |
| N#Cc1nn(-c2cc(=O)[nH]c3ccc(Cl)cc23)c(N)c1C#N | > 100 µM | > 100 µM | > 100 µM | > 100 µM | > 100 µM | > 100 µM | 11.5 µM | > 100 µM | 10.2 µM | > 100 µM | 82.3 µM | > 100 µM | > 100 µM | > 100 µM | > 100 µM | > 100 µM | > 100 µM | > 100 µM | > 100 µM | > 100 µM |
| Cc1nnc(Nc2ccc(NC(=O)Nc3ccc(Cl)cc3)cc2)c2ccccc12 | 3.21 µM | 10.5 µM | 3.24 µM | 8.59 µM | 1.84 µM | 3.69 µM | 3.47 µM | 17.9 µM | 2.56 µM | 6.06 µM | 2.21 µM | 10.9 µM | 3.46 µM | 11.7 µM | 2.04 µM | 4.21 µM | 2.61 µM | 6.59 µM | 1.98 µM | 3.75 µM |
| O=C(/C=C/c1ccc[nH]1)c1ccc(-n2ccc(C(F)(F)F)n2)cc1 | > 100 µM | > 100 µM | 9.64 µM | > 100 µM | > 100 µM | > 100 µM | > 100 µM | > 100 µM | > 100 µM | > 100 µM | > 82.2 µM | > 100 µM | 84.2 µM | > 100 µM | > 25.8 µM | > 100 µM | > 100 µM | > 100 µM | 5.55 µM | > 100 µM |
| C/C(N=NC(=S)N1CC2CCC(CC2)C1)=C1\C=CC=CN1O | – | > 94.9 µM | – | > 68.8 µM | – | 30.7 µM | – | > 65.9 µM | – | 54.5 µM | – | > 100 µM | – | 42.7 µM | – | > 71.5 µM | – | > 100 µM | – | > 61.4 µM |
| CN1CCN(c2ccc(Nc3cc(-c4cccc(-n5ccc6cc(C7CC7)cc(F)c6c5=O)c4CO)cn(C)c3=O)nc2)CC1 | 2.51 µM | 9.26 µM | 5.27 µM | 19.2 µM | 1.84 µM | 3.76 µM | 2.62 µM | 9.11 µM | 1.89 µM | 8.42 µM | 3.24 µM | 18.6 µM | 3.83 µM | 15.7 µM | 10.5 µM | 24.2 µM | 14.6 µM | 29.5 µM | 3.47 µM | 14 µM |
| CCn1c(O)c(/C=N/NC(=O)C(C)c2ccc(CC(C)C)cc2)sc1=S (stereo not given) | 0.243 µM | 0.87 µM | 0.472 µM | > 54.4 µM | 0.813 µM | > 38.8 µM | 0.596 µM | > 46 µM | 0.806 µM | 9.65 µM | 0.346 µM | > 35.1 µM | 0.353 µM | 10.9 µM | 0.337 µM | > 34.7 µM | 0.666 µM | > 100 µM | 0.399 µM | > 38 µM |
| CCCC(=O)Nc1cn(COC)c(C(=O)N2C[C@@H]3C[C@]34C2=CC(=O)c2[nH]cc(C)c24)n1 | – | 18.2 µM | – | 50 µM and 30 µM | 2.16 µM | 50 µM and 6.82 µM | 14.8 µM | > 5 µM and 38.2 µM | 5.51 µM | 20.6 µM and 18.2 µM | – | 50 µM and 11.6 µM | 2.44 µM | 13.9 µM and 5.08 µM | 3.68 µM | 50 µM and 15.8 µM | 13.7 µM | 28.2 µM and 29.4 µM | 4.93 µM | 50 µM and 21.1 µM |
| CCC[CH2][Sn]([CH2]CCC)([O]C(=O)c1ccc(OC)c(OC)c1OC)[O][Sn]([CH2]CCC)([CH2]CCC)[O]C(=O)c1ccc(OC)c(OC)c1OC | 0.284 µM | 1.25 µM | 2.27 µM | 5.42 µM | 0.259 µM | 0.583 µM | 1.39 µM | 2.76 µM | 0.159 µM | 0.554 µM | 0.133 µM | 1.28 µM | 0.895 µM | 2.55 µM | 0.568 µM | 1.5 µM | 1.24 µM | 2.59 µM | 0.274 µM | 1.1 µM |
